Measured values published in patent publication USRE38551E1, “Anticonvulsant enantiomeric amino acid derivatives” (priority 1996, dated 2004).
Marks after values point to notes of the source that are not given here.

What was measured:
[1] = tested on: maximal electroshock (MES) induced seizure; assay: maximal electroshock (MES) seizure test, mice (ip); format: in vivo; details: for ED50: Mus musculus
From the text: (§1) Compounds were screened for anticonvulsant activity in both male albino Carthworth Farms No. 1 mice (ip route) and male albino Sprague Dawley rats [oral (po) route]. Activity was established using the electrical (maximal electroshock or MES) test. In the MES test, a drop of electrolyte solution with anesthetic (0.5% butacaine hemisulfate in 0.9% sodium chloride) was used in the eyes of the animals prior to positioning the corneal electrodes and delivery of current. […] Protection endpoints were defined as the abolition of the hind limb tonic extensor component of the induced seizure. In mice, effects of compounds on forced spontaneous motor activity were determined using the rotorod test. […] Normally under these conditions, mice maintain their balance almost indefinitely. In rats, motor impairment is assessed by observing for overt evidence of ataxia, abnormal gait and stance, and/or loss of placing response and muscle tone. In the mouse identification screening study all compounds were given at three dose levels (30, 100, 300 mg/kg) and two time periods (0.5 hours, 4 hours). Typically, in the MES seizures test one animal was tested at 30 mg/kg and 300 mg/kg, and three animals at 100 mg/kg. In the rotored toxicity test four animals were tested at 30 mg/kg, and 300 mg/kg, and eight animals at 100 mg/kg.
(§2) The quantitative determination of the median effective (ED50) and toxic doses (TD50) was conducted at previously calculated times of peak effect. Groups of at least eight animals were tested using different doses of test compound until at least two points wee determined between 100 and 0% protection and minimal motor impairment.

[2] = tested on: maximal electroshock (MES) induced seizure; assay: maximal electroshock (MES) seizure test, rats (po); format: in vivo; details: for ED50: Rattus norvegicus
From the text: as §1, §2

Crl:CoBs CD(SD) rats = assay: thirty-day dose range finding study of Compound A in rats; details: for BR - BRAIN W/STEM organ to terminal body weight ratio mean / HT - HEART organ to terminal body weight ratio mean / KD - KIDNEY organ to terminal body weight ratio mean / LI - LIVER organ to terminal body weight ratio mean / SP - SPLEEN organ to terminal body weight ratio mean / dilated pelves of kidneys, number of animals / TP - TESTIS/EPIDID organ to terminal body weight ratio mean: 30 days oral
Procedure: More specifically, 50 male and 50 female Crl:CoBs® CD(SD) selected from 68 male and 68 female rats (4 weeks old) were used as test animals in the study 1. The rats were housed individually in elevated wire mesh cages with food (Purina Certified Rodent Chow® 5002) and tap water (via an automated watering system) available ad libitum. Each batch of feed utilized was analyzed by the manufacturer for concentrations of specified heavy metals, aflatoxin, chlorinated hydrocarbons, organophosphates, and specified nutrients.
An artificial light cycle of 12 hours light and 12 hours dark was maintained.
The rats were selected for use on the study using a computer-generated weight randomization procedure and assigned to the following groups:
Following randomization, the rats were identified with an ear tag bearing a unique permanent identification number. The rats were randomly assigned to treatment groups by first eliminating the ones with extreme body weights (±2 standard deviations from the mean body weight).
The desired amount of carboxymethyl cellulose was weighed on an appropriate (milligram) balance, transferred to a precalibrated beaker containing two-thirds of the total value of distilled water, and stirred on a magnetic stirrer until a solution formed. Distilled water was then added to final volume and stirred to achieve a 0.5% w/v solution.
Compound A was first ground into a powder. The desired amount for each dose level as weighed on an appropriate (milligram) balance and transferred into a precalibrated beaker. A small amount (0.5 to 4ml) of 0.5% carboxymethyl cellulose was added to Compound A and mixed to form a paste. […] Fresh suspensions of Compound A were prepared daily and fresh solutions of 0.5% carboxymethyl cellulose were prepared weekly and stored refrigerated.
Each rat received Compound A at a dosage factor of 10 milliliters per kilogram of body weight via gavage between 9 a.m. and noon each day. The dosing volume for each rat was calculated and adjusted weekly by the computer from the most recently recorded individual body weight.
Compound A was administered orally.
All rats were observed twice daily for mortality and moribundity. Clinical observations were made prior to dosing and at 1 and 4 hours after dosing. All signs were recorded as they were observed. Individual body weights were recorded at initiation of treatment, at weekly intervals, and at termination while food consumption was recorded weekly.
Following 30 or 31 days of treatment, surviving rats were weighed, anesthetized, and exsanguinated under sodium pentobarbital anesthesia. Complete necropsies were performed on each rat by appropriately trained personnel using procedures approved by board-certified pathologists. Necropsy included examination of the following:
Various organs were weighted and compared to the control, e.g., brain with stem, heart, spleen, kidney, liver, sex organs.

[3] = female, group 5, 1000 mg/kg/day

## CC(=O)NC(C)C(=O)NCc1ccccc1 (racemic) [compound 1, N-Acetyl-D,L-alanine-N′-benzylamide]
[1]; ip, read-out: MES, ED50
  ED50: 76.5 mg/kg
[1]; ip, read-out: MOUSE anticonvulsant dose ED50 MES
  ED50: 76.5 mg/kg
[1]; mice, ip
  PI protective index (TD50/MES ED50): 5.9
[1]; mouse, i.p., Neurotox/MES (Table 6)
  Ratio to MES: 5.9
[2]; po, read-out: MES, ED50
  ED50: 24.2 mg/kg
[2]; po, read-out: RAT anticonvulsant ED50 MES
  ED50: 48.2 mg/kg
[2]; rat, oral, Neurotox/MES (Table 6)
  Ratio to MES: 20.8
[2]; rat, po
  PI protective index (TD50/MES ED50): >20.8
Crl:CoBs CD(SD) rats; Group 5 males (1000 mg/kg/day × 30 days)
  mean kidney weight: small increase
Crl:CoBs CD(SD) rats; female, group 2, 30 mg/kg/day
  BR - BRAIN W/STEM organ to terminal body weight ratio mean: .887%
  HT - HEART organ to terminal body weight ratio mean: .372%
  KD - KIDNEY organ to terminal body weight ratio mean: .773%
  LI - LIVER organ to terminal body weight ratio mean: 3.122%
  SP - SPLEEN organ to terminal body weight ratio mean: .204%
Crl:CoBs CD(SD) rats; female, group 3, 100 mg/kg/day
  BR - BRAIN W/STEM organ to terminal body weight ratio mean: .899%
  HT - HEART organ to terminal body weight ratio mean: .345%
  KD - KIDNEY organ to terminal body weight ratio mean: .768%
  LI - LIVER organ to terminal body weight ratio mean: 3.166%
  SP - SPLEEN organ to terminal body weight ratio mean: .200%
Crl:CoBs CD(SD) rats; female, group 4, 300 mg/kg/day
  BR - BRAIN W/STEM organ to terminal body weight ratio mean: .934%
  HT - HEART organ to terminal body weight ratio mean: .373%
  KD - KIDNEY organ to terminal body weight ratio mean: .770%
  LI - LIVER organ to terminal body weight ratio mean: 3.172%
  SP - SPLEEN organ to terminal body weight ratio mean: .198%
Crl:CoBs CD(SD) rats; [3]
  BR - BRAIN W/STEM organ to terminal body weight ratio mean: .891%
  HT - HEART organ to terminal body weight ratio mean: .347%
  KD - KIDNEY organ to terminal body weight ratio mean: .763%
  LI - LIVER organ to terminal body weight ratio mean: 3.739* %
  SP - SPLEEN organ to terminal body weight ratio mean: .189%
Crl:CoBs CD(SD) rats; females, Group 5 (1000 mg/kg/day)
  dilated pelves of kidneys, number of animals: two
Crl:CoBs CD(SD) rats; male, group 2, 30 mg/kg/day
  BR - BRAIN W/STEM organ to terminal body weight ratio mean: .593%
  HT - HEART organ to terminal body weight ratio mean: .313%
  KD - KIDNEY organ to terminal body weight ratio mean: .719%
  LI - LIVER organ to terminal body weight ratio mean: 2.849%
  SP - SPLEEN organ to terminal body weight ratio mean: .172%
  TP - TESTIS/EPIDID organ to terminal body weight ratio mean: 1.265%
Crl:CoBs CD(SD) rats; male, group 3, 100 mg/kg/day
  BR - BRAIN W/STEM organ to terminal body weight ratio mean: .599%
  HT - HEART organ to terminal body weight ratio mean: .314%
  KD - KIDNEY organ to terminal body weight ratio mean: .694%
  LI - LIVER organ to terminal body weight ratio mean: 3.059* %
  SP - SPLEEN organ to terminal body weight ratio mean: .166%
  TP - TESTIS/EPIDID organ to terminal body weight ratio mean: 1.219%
  dilated pelves of kidneys, number of animals: one
Crl:CoBs CD(SD) rats; male, group 4, 300 mg/kg/day
  BR - BRAIN W/STEM organ to terminal body weight ratio mean: .581%
  HT - HEART organ to terminal body weight ratio mean: .328%
  KD - KIDNEY organ to terminal body weight ratio mean: .695%
  LI - LIVER organ to terminal body weight ratio mean: 3.101* %
  SP - SPLEEN organ to terminal body weight ratio mean: .163%
  TP - TESTIS/EPIDID organ to terminal body weight ratio mean: 1.212%
  dilated pelves of kidneys, number of animals: one
Crl:CoBs CD(SD) rats; male, group 5, 1000 mg/kg/day
  BR - BRAIN W/STEM organ to terminal body weight ratio mean: .571%
  HT - HEART organ to terminal body weight ratio mean: .343%
  KD - KIDNEY organ to terminal body weight ratio mean: .770%
  LI - LIVER organ to terminal body weight ratio mean: 3.683* %
  SP - SPLEEN organ to terminal body weight ratio mean: .176%
  TP - TESTIS/EPIDID organ to terminal body weight ratio mean: 1.202%
Crl:CoBs CD(SD) rats; males of Groups 4 (300 mg/kg/day × 30 days) and 5 (1000 mg/kg/day × 30 days), Group 5 females
  mean liver weight: increased
Crl:CoBs CD(SD) rats; males, Group 5 (1000 mg/kg/day)
  dilated pelves of kidneys, number of animals: three
Crl:CoBs CD(SD) rats; rat, oral, 100 mg/kg/day × 30 days vs oral MES ED50
  Safety Ratio daily dose; MES: 2.1
Crl:CoBs CD(SD) rats; rats, threshold daily dose 100 mg/kg
  safety ratio, dose to signs of liver enlargement following 30 days medication relative to oral anti-convulsant dose: 2.1

## COC[C@@H](NC(C)=O)C(=O)NCc1ccccc1 [Ex. 1, 2, (R)-N-Benzyl-2-Acetamide-3-methoxypropionamide]
[1]; mice, ip, at time of peak effect (hours in brackets)
  MES, ED50: 4.5 [0.5] mg/kg
[1]; mouse, i.p. (Table 6)
  MOUSE anticonvulsant dose ED50 MES: 4.46 mg/kg
[2]; rat, oral (Table 6)
  RAT anticonvulsant ED50 MES: 3.90 mg/kg
[2]; rat, po, at time of peak effect
  MES, ED50: 3.9 [0.5] mg/kg
